Assays:
P. aeruginosa PAO1 = experiment: MIC of doxycycline against P. aeruginosa PAO1; assay type: cell-based; conditions: Pseudomonas aeruginosa
Experimental: Antibiotics: All the antibiotics were purchased from Sigma-Aldrich except for doxycycline which was purchased from TCI Europe (Zwijndrecht, Belgium). All antibiotics were dissolved in water. The susceptibility of bacterial strains to antibiotics and compounds was determined in microplates by the standard broth dilution method, according to the recommendations of the Comité de l'AntibioGramme de la Société Française de Microbiologie (CA-SFM).^[36] Briefly, MICs were determined with an inoculum of 10^5 CFU in of MH broth (200 μL) containing twofold serial dilutions of each drug. […] Measurements were repeated in triplicate.

bacterial membrane = conditions: cited from earlier work
[1] = test system: Staphylococcus aureus ATCC25923; experiment: ATP release (membrane disruption) in S. aureus; assay type: cell-based; conditions: ATP release for 1 min, 100 μg/mL
Experimental: Measurement of ATP efflux: Squalamine were prepared in doubly distilled water at different concentrations. A suspension of growing S. aureus or E. aerogenes (EA289) in MH broth was incubated at 37° C. The suspension (90 μL) was added to squalamine solution (10 μL, synthesized in lab according to reported procedures), and the mixture was vortexed for Is. Luciferin-luciferase reagent (Yelen, France; 50 μL) was immediately added, and luminescence was quantified with an Infinite M200 microplate reader (Tecan) for 5 s. ATP concentration was quantified by addition of a known amount of ATP (1 μM).

[2] = test system: S. aureus RN4220, P. aeruginosa PAO1 and E. coli ANSI; conditions: cited from earlier work; for activity against S. aureus RN4220, P. aeruginosa PAO1 and E. coli ANSI: higher polyamines; for antibacterial activity: unsubstituted diamines
E. aerogenes EA289 = experiment: Nitrocefin hydrolysis assay (outer membrane permeabilization); assay type: cell-based, Enterobacter aerogenes; conditions: 5b even at 3.9 μM, compared to spermine-treated or untreated control
Experimental: Nitrocefin hydrolysis assay: Outer membrane permeabilization was measured by using nitrocefin, a chromogenic substrate of periplasmic β-lactamase. MH broth (10 mL) was inoculated with of an overnight culture (0.1 mL) of EA289 and grown at 37° C. to OD600=0.5. The remaining steps were performed at room temperature. Cells were recovered by centrifugation (3600 G, 20 min) and washed once with potassium phosphate buffer (PPB) (20 mM, pH 7.2) containing MgCl2 (1 mM). After another centrifugation, the pellet was resuspended in PPB (100 μL) and adjusted to OD600=0.5. Then, either Polymyxin B (positive control; Sigma-Aldrich) or 5b (50 μL) was added to the cell suspension (100 gm/L) to final concentrations of 0.98-500 μM “2.5, 15, 62.5, and 125 μM”. Nitrocefin (50 μL, 50 μg/mL; Oxoid) was added, and its hydrolysis was monitored spectrophotometrically by measuring the increase in absorbance at 490 nm. Assays were performed in 96-well plates with an M200 Pro spectrophotometer (Tecan).

[3] = test system: E. aerogenes EA289, P. aeruginosa PAO1, and K. pneumoniae KPC2-ST258; experiment: Determination of antibiotic MIC in the presence of compounds (restoring enhancer concentration); assay type: cell-based
Experimental: Determination of antibiotic MIC in the presence of compounds: Briefly, restoring enhancer concentrations were determined with an inoculum of 5×10^5 colony forming unit (CFU) in MH broth (200 μL) containing twofold serial dilutions of each derivative and antibiotic (chloramphenicol, doxycycline, cefepime, or erythromycin; 2 μg/mL). […] Measurements were repeated in triplicate.

## C[C@H]1c2cccc(O)c2C(=O)C2=C(O)[C@]3(O)C(=O)C(C(N)=O)=C(O)[C@@H](N(C)C)[C@@H]3[C@@H](O)[C@@H]21 [doxycycline]
P. aeruginosa PAO1
  MIC: 16 µg/mL

## S=C(NCCCNCCCCCNCCCNC(=S)NCC(c1ccccc1)c1ccccc1)NCC(c1ccccc1)c1ccccc1 [1,13-bis (((2,2-diphenyl)-1-ethyl)thioureido)-4,10-diazatridecane]
Bacterial membrane
  cytoplasmic membrane depolarization: depolarize the cytoplasmic membrane

## NCCCNCCCCNCCCN [spermine]
[1]
  ATP release (disruption of the bacterial membrane): no significant effect
[2]
  activity against S. aureus RN4220, P. aeruginosa PAO1 and E. coli ANSI: inactive

## NCCCCN [putrescine]
[2]
  antibacterial activity: no antibacterial activity
Bacterial membrane
  membrane rupture: did not cause membrane rupture

## polymyxin-B
E. aerogenes EA289
  rate of nitrocefin hydrolysis: increase in nitrocefin hydrolysis

## Cl.Cl.NCCCCNCc1c2ccccc2cc2ccccc12 [7b]
[3]; antibiotic 2 μg/mL, PAO1, EA289 and KPC2-ST258
  synergy with chloramphenicol and erythromycin: weak or no activity
[3]; doxycycline 2 μg/mL, derivative even at 40 μM
  restoration of doxycycline activity: no improvement

## NCCCCCN [cadaverine]
[2]
  antibacterial activity: no antibacterial activity
Bacterial membrane
  membrane rupture: did not cause membrane rupture

## NCCCCNCCCN [spermidine]
[2]
  activity against S. aureus RN4220, P. aeruginosa PAO1 and E. coli ANSI: inactive

## CC(C)[C@@H](CC[C@@H](C)[C@H]1CC[C@H]2[C@@H]3[C@H](O)C[C@H]4C[C@@H](NCCCNCCCCN)CC[C@]4(C)[C@H]3CC[C@]12C)OS(=O)(=O)O [squalamine]
[1]
  ATP release (disruption of the bacterial membrane): dramatic disruption of the bacterial membrane
